From the CheMixHub viscosity set

Experiment: xn = mol fraction of the nth substance listed

CCOCCO + CO
298.15 K, 101 kPa
Settings	viscosity [mPa·s]
x1 = 0.038	0.6216
x1 = 0.0816	0.7062
x1 = 0.1322	0.7916
x1 = 0.1916	0.8844
x1 = 0.2623	0.9885
x1 = 0.3478	1.114
x1 = 0.4534	1.255
x1 = 0.5871	1.422
x1 = 0.7619	1.625

CNC(C)=O + CO
303.15 K, 101 kPa
Settings	viscosity [mPa·s]
x1 = 0.0999	0.644
x1 = 0.2019	0.798
x1 = 0.3029	0.98
x1 = 0.3939	1.175
x1 = 0.504	1.457
x1 = 0.605	1.778
x1 = 0.6998	2.134
x1 = 0.7934	2.561
x1 = 0.8995	3.14

CC(C)CCO + COCCO
303.15 K, 101.3 kPa
Settings	viscosity [mPa·s]
x2 = 0.1536	2.477
x2 = 0.2181	2.305
x2 = 0.3068	2.095
x2 = 0.3756	1.955
x2 = 0.4802	1.772
x2 = 0.6881	1.512
x2 = 0.7438	1.47
x2 = 0.8293	1.413
x2 = 0.9356	1.38

CNC(C)=O + COCCO
viscosity [mPa·s], 101.33 kPa
Settings	308.15 K	313.15 K	318.15 K
x1 = 0.0301	1.362	1.242	1.136
x1 = 0.0501	1.393	1.27	1.16
x1 = 0.0752	1.431	1.304	1.191
x1 = 0.1036	1.476	1.343	1.227
x1 = 0.1301	1.515	1.378	1.259
x1 = 0.17	1.574	1.432	1.307
x1 = 0.2032	1.624	1.477	1.348
x1 = 0.2501	1.696	1.541	1.404
x1 = 0.302	1.776	1.613	1.468
x1 = 0.4032	1.94	1.758	1.596
x1 = 0.5037	2.114	1.91	1.73
x1 = 0.6033	2.308	2.074	1.876
x1 = 0.65	2.409	2.16	1.95
x1 = 0.7021	2.526	2.259	2.038
x1 = 0.7503	2.641	2.357	2.124
x1 = 0.8032	2.775	2.477	2.227
x1 = 0.8524	2.908	2.594	2.328
x1 = 0.9035	3.061	2.724	2.439
x1 = 0.9301	3.145	2.795	2.5
x1 = 0.9702	3.277	2.913	2.597
